# In patent publication US9193722B2, “Tri-cyclic pyrazolopyridine kinase inhibitors” (Vertex Pharmaceuticals Incorporated, priority 2008, dated 2015):
# Where two headings read alike, the source gives them in different places.
# Columns and labels:
# Type in all cases: biochemical
# PKC delta kinase = PKC delta kinase (Homo sapiens, UniProt Q05655); experiment: PKC delta kinase inhibition, coupled-enzyme (NADH absorbance) assay, Ki; conditions: 150 μM ATP, 46 nM PKC delta kinase, 30° C.
# Description: (§1) An assay buffer solution was prepared which consisted of 100 mM HEPES (pH 7.5), 10 mM MgCl2, 25 mM NaCl, 0.1 mM EDTA and 0.01% Brij. […] To 16 μL of this enzyme buffer, in a 384 well plate, was added 1 μL of VRT stock solution in DMSO. The mixture was allowed to equilibrate for 10 mins at 30° C. The enzyme reaction was initiated by the addition of 16 μL stock ATP solution prepared in assay buffer to a final assay concentration of 150 μM. Initial rate data was determined from the rate of change of absorbance at 340 nm (corresponding to stoichiometric consumption of NADH) using a Molecular Devices Spectramax plate reader (Sunnyvale, Calif.) over 15 mins at 30° C. […] Ki values were calculated from initial rate data by non-linear regression using the Prism software package (Prism 4.0a, Graphpad Software, San Diego, Calif.).
# PKC alpha kinase = PKC alpha kinase (Homo sapiens, UniProt P17252); experiment: PKC alpha kinase inhibition, coupled-enzyme (NADH absorbance) assay, Ki; conditions: 130 μM ATP, 4.5 nM PKC alpha kinase, 30° C.
# Description: as §1, with “EDTA, 100 μM CaCl2” for “EDTA”, “130” for “150”
# PKC theta kinase = PKC theta kinase (Homo sapiens, UniProt Q04759); experiment: PKC theta kinase inhibition, coupled-enzyme (NADH absorbance) assay, Ki; conditions: 240 μM ATP, 18 nM PKC theta kinase, 30° C.
# Description: An assay buffer solution was prepared which consisted of 100 mM HEPES (pH 7.5), 10 mM MgCl2, 25 mM NaCl, 0.1 mM EDTA and 0.01% Brij. […] To 60 μL of this enzyme buffer, in a 384 well plate, was added 2 μL of VRT stock solution in DMSO. The mixture was allowed to equilibrate for 10 mins at 30° C. […] Ki values were calculated from initial rate data by non-linear regression using the Prism software package (Prism 4.0a, Graphpad Software, San Diego, Calif.).
# Chain of PKC delta kinase (Q05655 whole entry): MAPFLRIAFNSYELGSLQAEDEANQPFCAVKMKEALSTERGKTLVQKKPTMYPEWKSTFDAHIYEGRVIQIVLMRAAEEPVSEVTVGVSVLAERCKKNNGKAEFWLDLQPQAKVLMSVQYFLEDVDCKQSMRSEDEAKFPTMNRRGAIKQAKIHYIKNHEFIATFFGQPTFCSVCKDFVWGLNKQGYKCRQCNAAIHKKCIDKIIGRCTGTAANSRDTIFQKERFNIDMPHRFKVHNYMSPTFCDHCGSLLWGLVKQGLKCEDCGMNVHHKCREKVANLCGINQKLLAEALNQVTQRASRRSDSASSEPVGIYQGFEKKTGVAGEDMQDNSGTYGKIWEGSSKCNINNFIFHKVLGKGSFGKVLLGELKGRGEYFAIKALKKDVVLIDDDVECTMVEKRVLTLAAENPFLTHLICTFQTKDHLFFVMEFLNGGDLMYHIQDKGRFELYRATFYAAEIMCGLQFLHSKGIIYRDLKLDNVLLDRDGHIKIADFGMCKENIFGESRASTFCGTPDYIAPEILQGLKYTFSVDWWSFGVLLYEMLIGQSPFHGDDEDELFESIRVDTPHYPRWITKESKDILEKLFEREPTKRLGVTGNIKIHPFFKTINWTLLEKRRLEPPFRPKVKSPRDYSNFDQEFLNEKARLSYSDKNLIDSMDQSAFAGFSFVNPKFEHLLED
# Chain of PKC theta kinase (Q04759 whole entry): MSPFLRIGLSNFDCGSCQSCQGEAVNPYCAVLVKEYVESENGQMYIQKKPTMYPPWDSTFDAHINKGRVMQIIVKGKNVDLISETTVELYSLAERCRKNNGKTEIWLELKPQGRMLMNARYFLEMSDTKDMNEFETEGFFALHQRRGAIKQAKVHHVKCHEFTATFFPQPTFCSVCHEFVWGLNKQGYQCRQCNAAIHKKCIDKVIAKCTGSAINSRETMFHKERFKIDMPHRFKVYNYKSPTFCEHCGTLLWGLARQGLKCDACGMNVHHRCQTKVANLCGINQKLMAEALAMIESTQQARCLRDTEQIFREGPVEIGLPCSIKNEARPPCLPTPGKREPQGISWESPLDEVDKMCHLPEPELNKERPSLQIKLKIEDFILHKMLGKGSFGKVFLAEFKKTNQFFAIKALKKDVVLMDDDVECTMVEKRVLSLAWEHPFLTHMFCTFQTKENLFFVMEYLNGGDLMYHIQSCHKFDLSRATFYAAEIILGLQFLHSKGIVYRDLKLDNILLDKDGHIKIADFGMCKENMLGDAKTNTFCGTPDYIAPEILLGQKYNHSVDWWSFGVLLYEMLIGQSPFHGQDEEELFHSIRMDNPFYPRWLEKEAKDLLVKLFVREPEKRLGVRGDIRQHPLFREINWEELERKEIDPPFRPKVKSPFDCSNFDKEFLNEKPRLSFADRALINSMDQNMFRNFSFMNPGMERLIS
Structure (SMILES),Ki (PKC delta kinase; read-out: Ki PKC delta),Ki (PKC alpha kinase),Ki (PKC theta kinase),Ki (PKC delta kinase; Ki PKC delta)
FC(F)(F)c1ccc(N2CCNC(C(F)(F)F)C2)nc1-c1n[nH]c2ncccc12 (stereo not drawn) [Compound 65],> 2000 nM,> 1250 nM,< 500 nM,–
Cc1cc(C)c(CC2CN(c3cccc(-c4n[nH]c5ncccc45)n3)CCN2)c(C)c1 (stereo not drawn) [Compound 69],> 2000 nM,> 1250 nM,> 700 nM,–
CC(C)(O)CC1CN(c2ccc(C(F)(F)F)c(-c3n[nH]c4ncccc34)n2)CCN1 (stereo not drawn) [Compound 72],> 2000 nM,> 1250 nM,< 500 nM,–
CC(C)C[C@@H]1CC(O)(c2cccc(-c3n[nH]c4ncccc34)n2)CCN1 (stereo partly drawn) [Compound 73],> 2000 nM,> 1250 nM,> 700 nM,–
CC(C)(C)[C@H]1CN(c2ccc(C(F)(F)F)c(-c3n[nH]c4ncccc34)n2)CCN1 [Compound 77],> 2000 nM,> 1250 nM,< 500 nM,–
"c1cnc2[nH]nc(-c3nccc(N4CCNCC4)n3)c2c1 [Compound 81, 3-(4-(piperazin-1-yl)pyrimidin-2-yl)-1H-pyrazolo[3,4-b]pyridine]",> 2000 nM,> 1250 nM,> 700 nM,–
CC(C)C[C@H]1CN(c2ccc(C(F)(F)F)c(-c3n[nH]c4ncccc34)n2)CC[C@@H]1N [Compound 85],> 2000 nM,> 1250 nM,< 500 nM,–
CC(C)(O)C1CN(c2ccc(C(F)(F)F)c(-c3n[nH]c4ncccc34)n2)CCN1 (stereo not drawn) [Compound 87],> 2000 nM,> 1250 nM,< 500 nM,–
Fc1ccc(N2CCNCC2)nc1-c1n[nH]c2ncccc12 [Compound 88],–,> 1250 nM,< 500 nM,< 2800 nM
CC(C)C[C@H]1CN(c2ccc(C(F)(F)F)c(-c3n[nH]c4ncccc34)n2)CC[C@@H]1O [Compound 90],> 2000 nM,> 1250 nM,> 700 nM,–
CC(C)C[C@H]1CN(c2ccc(C(F)(F)F)c(-c3n[nH]c4ncccc34)n2)CC[C@H]1O [Compound 91],> 2000 nM,> 1250 nM,< 500 nM,–
Cc1cc(-c2n[nH]c3ncccc23)nc(N2CCNCC2)c1 [Compound 93],> 2000 nM,> 1250 nM,> 700 nM,–
FC(F)(F)c1cc(-c2n[nH]c3ncccc23)nc(N2CCNCC2)c1 [Compound 94],> 2000 nM,> 1250 nM,> 700 nM,–
FC(F)(F)c1ccc(N2CCCNCC2)nc1-c1n[nH]c2ncccc12 [Compound 97],> 2000 nM,> 1250 nM,< 500 nM,–
CC(C)[C@H]1CN(c2ccc(C(F)(F)F)c(-c3n[nH]c4ncccc34)n2)CCN1 [Compound 98],> 2000 nM,> 1250 nM,< 500 nM,–
CC(C)C[C@@H]1CC(F)(c2cccc(-c3n[nH]c4ncccc34)n2)CCN1 (stereo partly drawn) [Compound 99],> 2000 nM,> 1250 nM,< 500 nM,–
COC(C)(C)CC1CN(c2cccc(-c3n[nH]c4ncccc34)n2)CCN1 (stereo not drawn) [Compound 101],> 1250 nM,> 1250 nM,< 50 nM,–
CC(C)(F)CC1CN(c2ccc(C(F)(F)F)c(-c3n[nH]c4ncccc34)n2)CCN1 (stereo not drawn) [Compound 102],> 1250 nM,> 1250 nM,< 50 nM,–
C=C(F)c1cc(-c2n[nH]c3ncccc23)nc(N2CCC(N)CC2)c1 [Compound 106],> 1250 nM,> 1250 nM,< 500 nM,–
Cc1cc(-c2n[nH]c3ncccc23)nc(N2CCC(N)CC2)c1 [Compound 107],> 1250 nM,> 1250 nM,< 500 nM,–
Cc1cc(N2CCC(N)CC2)nc(-c2n[nH]c3ncccc23)c1Cl [Compound 109],> 1250 nM,> 1250 nM,< 2800 nM,–
CC(C)C[C@H]1CC(O)(c2cccc(-c3n[nH]c4ncccc34)n2)CCN1 (stereo partly drawn) [Compound 111],> 1250 nM,> 1250 nM,> 700 nM,–
CCCC1CN(c2ccc(C(F)(F)F)c(-c3n[nH]c4ncccc34)n2)CCN1 (stereo not drawn) [Compound 113],> 1250 nM,> 1250 nM,< 50 nM,–
COc1ccccc1C1CN(c2ccc(C(F)(F)F)c(-c3n[nH]c4ncccc34)n2)CCN1 (stereo not drawn) [Compound 114],> 1250 nM,> 1250 nM,< 500 nM,–

# The next lines start with results.
Ki (PKC delta kinase; read-out: Ki PKC delta),Ki (PKC alpha kinase),Ki (PKC theta kinase),Structure (SMILES),Ki (PKC delta kinase; Ki PKC delta)
< 2800 nM,> 1250 nM,< 500 nM,CC(C)C[C@H]1CN(c2ccnc(-c3n[nH]c4ncccc34)n2)CCN1 [Compound 66],–
< 500 nM,< 2800 nM,< 500 nM,NC1CCCN(c2cccc(-c3n[nH]c4ncccc34)n2)C1 (stereo not drawn) [Compound 68],–
< 500 nM,> 1250 nM,< 50 nM,CC(C)(F)CC1CN(c2cccc(-c3n[nH]c4ncccc34)n2)CCN1 (stereo not drawn) [Compound 71],–
< 500 nM,< 2800 nM,< 500 nM,NCC1CCCN(c2cccc(-c3n[nH]c4ncccc34)n2)C1 (stereo not drawn) [Compound 74],–
< 2800 nM,> 1250 nM,< 500 nM,CC[C@H]1CN(c2ccc(C(F)(F)F)c(-c3n[nH]c4ncccc34)n2)CCN1 [Compound 75],–
< 500 nM,< 2800 nM,< 50 nM,CC(C)(C)[C@H]1CN(c2cccc(-c3n[nH]c4ncccc34)n2)CCN1 [Compound 76],–
< 2800 nM,> 1250 nM,< 500 nM,CC(C)(C)[C@H]1CN(c2ccc(Cl)c(-c3n[nH]c4ncccc34)n2)CCN1 [Compound 78],–
< 500 nM,> 1250 nM,< 50 nM,CC1(C)CN(c2cccc(-c3n[nH]c4ncccc34)n2)CCN1 [Compound 79],–
< 500 nM,> 1250 nM,< 500 nM,CC1(C)CN(c2ccc(C(F)(F)F)c(-c3n[nH]c4ncccc34)n2)CCN1 [Compound 80],–
< 500 nM,< 500 nM,< 50 nM,CC(C)CC1(C)CN(c2ccc(C(F)(F)F)c(-c3n[nH]c4ncccc34)n2)CCN1 (stereo not drawn) [Compound 82],–
< 500 nM,< 2800 nM,< 50 nM,FC1(c2cccc(-c3n[nH]c4ncccc34)n2)CCNCC1 [Compound 83],–
< 500 nM,< 2800 nM,< 50 nM,CC(C)C[C@H]1CN(c2ccc(C(F)(F)F)c(-c3n[nH]c4ncccc34)n2)CC[C@H]1N [Compound 84],–
< 50 nM,< 50 nM,< 50 nM,CC(C)CC1(C)CN(c2ccc(Cl)c(-c3n[nH]c4ncccc34)n2)CCN1 (stereo not drawn) [Compound 86],–
< 50 nM,< 500 nM,< 50 nM,CC(C)CC1(C)CN(c2cccc(-c3n[nH]c4ncccc34)n2)CCN1 (stereo not drawn) [Compound 89],–
< 500 nM,> 1250 nM,< 500 nM,C=C(F)c1cc(-c2n[nH]c3ncccc23)nc(N2CCNCC2)c1 [Compound 92],–
< 2800 nM,> 1250 nM,< 2800 nM,Cc1cc(N2CCNCC2)nc(-c2n[nH]c3ncccc23)c1Cl [Compound 95],–
> 1250 nM,> 1250 nM,< 500 nM,COC(C)(C)CC1CN(c2ccc(C(F)(F)F)c(-c3n[nH]c4ncccc34)n2)CCN1 (stereo not drawn) [Compound 100],–
< 500 nM,< 2800 nM,< 50 nM,C=C(C)CC1CN(c2ccc(C(F)(F)F)c(-c3n[nH]c4ncccc34)n2)CCN1 (stereo not drawn) [Compound 103],–
< 2800 nM,< 2800 nM,< 50 nM,CC(C)=CC1CN(c2ccc(C(F)(F)F)c(-c3n[nH]c4ncccc34)n2)CCN1 (stereo not drawn) [Compound 104],–
< 500 nM,> 1250 nM,< 50 nM,CC(C)(O)C1CN(c2cccc(-c3n[nH]c4ncccc34)n2)CCN1 (stereo not drawn) [Compound 105],–
< 2800 nM,> 1250 nM,< 500 nM,NC1CCN(c2cc(C(F)(F)F)cc(-c3n[nH]c4ncccc34)n2)CC1 [Compound 108],–
< 2800 nM,> 1250 nM,< 500 nM,NC1CCN(c2ccc(Cl)c(-c3n[nH]c4ncccc34)n2)CC1 [Compound 110],–
< 2800 nM,< 2800 nM,< 50 nM,Fc1cccc(C2CN(c3ccc(C(F)(F)F)c(-c4n[nH]c5ncccc45)n3)CCN2)c1 (stereo not drawn) [Compound 115],–
< 2800 nM,> 1250 nM,< 500 nM,C[C@H]1CN(c2ccc(C(F)(F)F)c(-c3n[nH]c4ncccc34)n2)CCN1 [Compound 116],–
